The results in this text go back to ChEMBL document CHEMBL1201862, “PubChem BioAssay data set” (2004).

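In this assay, cells in 96-well plates receive the compound at five concentrations for 48 hours. Endpoints are linearly interpolated between the surrounding concentrations. GI50 marks 50% less growth.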 Calls of active or inactive are those of the source. Cut-off read from the data, not from the text of the source: active = GI50 up to about 1.1 µM and inactive = higher. Square brackets hold non-standard residues; d marks the D form. Peptide text beside a SMILES is read from it. * marks the point of attachment. ξ: configuration not given here. NMeN = CN[C@@H](CC(N)=O)C(=O)O; NMeV = CN[C@H](C(=O)O)C(C)C; ξNMeV = CNC(C(=O)O)C(C)C; Boc = CC(C)(C)OC(=O)*; ξNMeA = CNC(C)C(=O)O

Some test systems named below: SF-268; UACC-62; COLO 205; ACHN; HL-60; 786-0; SW-620; CCRF-CEM; KM12; U-251; RPMI-8226; MOLT-4; SNB-75; Hs-578T; OVCAR-3; RXF 393; Malme-3M; NCI-H522; HOP-92.
What all share (experiment): NCI-60 cell line screen, 48 h

Turning to `Cc1nn(-c2ccccc2)c(C)c1/C=N/NC(=O)c1sc(=S)n(-c2ccccc2)c1N`, the GI50 in the experiment on SF-268 was 5.22 µM (inactive); in the experiment on UACC-62, 4.62 µM (inactive); in the experiment on COLO 205 it was 1.42 µM (inactive); in the experiment on ACHN, 1.48 µM (inactive); in the experiment on HL-60 it was 20.5 µM (inactive); with 786-0, 3.78 µM (inactive). In addition, the GI50 was 45.5 µM (inactive) with SW-620; 5.16 µM (inactive) with CCRF-CEM; 6.05 µM (inactive) in the experiment on KM12; 4.7 µM (inactive) in the experiment on U-251; 3.35 µM (inactive) with RPMI-8226; 5.58 µM (inactive) in the experiment on MOLT-4. The GI50 in the experiment with SNB-75 is 0.281 µM (active); with Hs-578T it was 1.85 µM (inactive); with OVCAR-3, 16.1 µM (inactive); in the experiment with RXF 393, 1.46 µM (inactive); in the experiment on Malme-3M, 3.58 µM (inactive).
In the case of `O=C1c2ccccc2-c2nc(-c3ccccc3)cc3c2c1nc1ccccc13`, the GI50 was 19.7 µM (inactive) in the experiment on SF-268; 2.56 µM (inactive) in the experiment with UACC-62; 25.6 µM (inactive) with COLO 205; 18.5 µM (inactive) in the experiment with ACHN; 1.03 µM (active) with HL-60; 25.2 µM (inactive) in the experiment on 786-0. The GI50 in the experiment on SW-620 was 13.2 µM (inactive); in the experiment with CCRF-CEM it was 0.59 µM (active); with KM12 it was 15.6 µM (inactive); in the experiment with U-251, 10.9 µM (inactive); with RPMI-8226 it was 0.479 µM (active); in the experiment on MOLT-4 it was 6.52 µM (inactive). In addition, the GI50 was 22.6 µM (inactive) in the experiment on Hs-578T, 0.141 µM (active) in the experiment on OVCAR-3, 29.5 µM (inactive) in the experiment with RXF 393 and 4.7 µM (inactive) in the experiment with Malme-3M.
On to `COC(=O)[C@]12CC3C=CC1N(C3)C(CBr)c1c2n(S(=O)(=O)c2ccccc2)c2ccccc12` (stereo not given in full), for which the GI50 in the experiment on UACC-62 was 57.3 µM (inactive); with COLO 205, > 100 µM (inactive); in the experiment with ACHN, 48.3 µM (inactive); in the experiment on HL-60, 35.1 µM (inactive); with NCI-H522, 27.9 µM (inactive); with 786-0, 43 µM (inactive). The GI50 in the experiment with SW-620 is > 100 µM (inactive); in the experiment on CCRF-CEM, 47.6 µM (inactive); with KM12, > 100 µM (inactive); with U-251, 63 µM (inactive); in the experiment on RPMI-8226 it was 0.292 µM (active); in the experiment with SNB-75 it was 25.9 µM (inactive). The GI50 is 39.9 µM (inactive) in the experiment on Hs-578T, 97.7 µM (inactive) in the experiment with OVCAR-3, 33.2 µM (inactive) in the experiment on RXF 393 and 72.9 µM (inactive) with Malme-3M.
With `O=c1c(/C=C/c2c(O)ccc3ccccc23)nnc2sc(-c3cccc(Br)c3)nn12`, the GI50 in the experiment with SF-268 is 4.51 µM (inactive); in the experiment on UACC-62, 20.7 µM (inactive); in the experiment on COLO 205 it was 39.2 µM (inactive); in the experiment on ACHN, 16.1 µM (inactive); in the experiment with HL-60 it was 3.94 µM (inactive); with NCI-H522, 15.5 µM (inactive). The GI50 was 26.6 µM (inactive) in the experiment on 786-0; 25.6 µM (inactive) in the experiment on SW-620; 3.82 µM (inactive) in the experiment with CCRF-CEM; 20.7 µM (inactive) with KM12; 25.2 µM (inactive) in the experiment on U-251; 10.3 µM (inactive) in the experiment on RPMI-8226. Moreover, the GI50 is 3.4 µM (inactive) in the experiment on MOLT-4, 35.9 µM (inactive) in the experiment with Hs-578T, 3.89 µM (inactive) in the experiment on OVCAR-3 and 23 µM (inactive) in the experiment with Malme-3M.
Consider `C=C1C(=O)OC2/C=C(/C)C3(O)OC(C)(CC(OC(=O)C(C)C)C12)CC3OC(C)=O` (stereo not given), for which the GI50 in the experiment on SF-268 is 22.6 µM (inactive); in the experiment on UACC-62, 11 µM (inactive); with COLO 205, 3.84 µM (inactive); in the experiment with ACHN, 2.3 µM (inactive); in the experiment with HL-60, 2.64 µM (inactive); in the experiment on NCI-H522, 1.91 µM (inactive). For the same compound, the GI50 in the experiment with HOP-92 is 13.3 µM (inactive); in the experiment with 786-0, 5.27 µM (inactive); in the experiment with SW-620, 4.19 µM (inactive); in the experiment with CCRF-CEM, 2.79 µM (inactive); in the experiment with KM12, 16.2 µM (inactive); in the experiment with U-251, 8 µM (inactive). In addition, the GI50 was 4.43 µM (inactive) in the experiment with RPMI-8226; 4.36 µM (inactive) in the experiment with MOLT-4; 47.5 µM (inactive) in the experiment on SNB-75; 11.5 µM (inactive) with OVCAR-3; 1.47 µM (inactive) in the experiment on RXF 393; 9.91 µM (inactive) in the experiment with Malme-3M.
For the compound `Nc1nc(-c2ccccc2)cc(-c2ccc(F)cc2)c1-c1ccc(Cl)cc1`, the GI50 is > 100 µM (inactive) with SF-268; > 100 µM (inactive) with UACC-62; > 100 µM (inactive) in the experiment with COLO 205; > 100 µM (inactive) in the experiment on ACHN; 21.4 µM (inactive) in the experiment with HL-60; 88.3 µM (inactive) in the experiment with 786-0. In addition, the GI50 with SW-620 is > 100 µM (inactive); in the experiment on CCRF-CEM, 33.2 µM (inactive); in the experiment on KM12, > 100 µM (inactive); with U-251 it was > 100 µM (inactive); in the experiment on RPMI-8226, 44.3 µM (inactive); in the experiment with MOLT-4, 5.57 µM (inactive). The GI50 is > 100 µM (inactive) in the experiment on SNB-75; 73.3 µM (inactive) with Hs-578T; > 100 µM (inactive) with OVCAR-3; > 100 µM (inactive) with RXF 393; > 100 µM (inactive) with Malme-3M.
Regarding `COc1ccc([C@]23CCN(S(=O)(=O)c4ccc(C)cc4)[C@H]2[C@H](CO)C2(CC3)OCC(C)(C)CO2)cc1OC`, the GI50 with UACC-62, in the experiment with COLO 205, in the experiment with ACHN, with HL-60, in the experiment with NCI-H522 and with HOP-92 was > 100 µM (inactive) each time. Moreover, the GI50 in the experiment on 786-0, in the experiment with SW-620, in the experiment with CCRF-CEM, in the experiment with KM12, in the experiment on U-251 and with RPMI-8226 was > 100 µM (inactive) in each case. The GI50 with MOLT-4 was > 100 µM (inactive); in the experiment on SNB-75, > 100 µM (inactive); in the experiment with OVCAR-3, > 100 µM (inactive); in the experiment with RXF 393, 98.6 µM (inactive); in the experiment on Malme-3M, > 100 µM (inactive).
Take `COC(=O)C(C)N(C)C(=O)[C@H](CC(N)=O)N(C)C(=O)[C@@H]1CCCN1C(=O)[C@H](C(C)C)N(C)C(=O)C(C(C)C)N(C)C(=O)[C@@H](NC(=O)OC(C)(C)C)C(C)C` (stereo not given in full) (Boc-V[ξNMeV][NMeV]P[NMeN][ξNMeA]-OMe): the GI50 is > 100 µM (inactive) in the experiment on SF-268; > 50 µM (inactive) in the experiment on UACC-62; > 50 µM (inactive) in the experiment on COLO 205; > 50 µM (inactive) in the experiment with ACHN; 15.1 µM (inactive) in the experiment with HL-60; > 50 µM (inactive) in the experiment on NCI-H522. Moreover, the GI50 is > 50 µM (inactive) with HOP-92; > 50 µM (inactive) in the experiment with 786-0; > 50 µM (inactive) in the experiment on SW-620; > 50 µM (inactive) in the experiment on CCRF-CEM; > 100 µM (inactive) in the experiment with KM12; > 50 µM (inactive) in the experiment on U-251. Further, the GI50 in the experiment with RPMI-8226 was > 50 µM (inactive); in the experiment with MOLT-4, 9.93 µM (inactive); in the experiment with SNB-75, > 100 µM (inactive); with OVCAR-3, > 50 µM (inactive); in the experiment with RXF 393, > 50 µM (inactive); in the experiment with Malme-3M, > 100 µM (inactive).
